Data published in patent US9174965B2, “Pyrimidinylpiperidinyloxypyridone analogues as GPR119 modulators” (BRISTOL-MYERS SQUIBB COMPANY, priority 2012, dated 2015).
≈ marks a conversion by molar mass, not a printed value.

What was measured:
hERG = hERG (Homo sapiens (Human), UniProt Q12809); test: Patch clamp electrophysiology assay, hERG; type: cell-based; settings: HEK293 cells stably expressing hERG, pH 7.4
Procedure: (§1) Compound Electrophysiology Assays
(§2) Recombinant ion channels (hERG, sodium [SCN5A], and L-type calcium [Cav1.2]) stably expressed in human embryonic kidney cells (HEK293) are used as test systems, and each system is tested using 2-3 replicates in the conventional patch clamp assay.
(§3) Ion channel membrane current recordings are made with a Multiclamp 700 series integrating patch-clamp amplifier (Axon Instruments, Foster City, Calif.) using the whole-cell variant of the patch-clamp technique.
(§4) Cells expressing hERG, sodium [SCN5A], or L-type calcium [Cav1.2] channels are placed in a plexiglass bath chamber, mounted on the stage of an inverted microscope, and perfused continuously with bath solution. […]
Initially, a current-voltage relationship is generated in the control bath solution using the following voltage protocol. hERG currents are elicited by 2 second step depolarizations applied from a holding potential of −80 mV to test potentials ranging from −70 mV to +60 mV. […] The peak tail current is monitored until a new steady-state in the presence of test article was achieved. This is followed by the application of the next higher concentration of test article to be tested, and is repeated until all concentrations of test article have been evaluated. Effects of test article on hERG channel are calculated by measuring inhibition of peak tail currents. […]

Aqueous solubility assay = type: physicochemical; settings: aqueous buffer, thermodynamic from solid; pH 6.5 phosphate buffer, room temperature, 18-24 h
Procedure: Approximately 0.75 mg of accurately weighed test compound was added to 1 mL of a pH 6.5 phosphate buffer (50 mM Potassium Phosphate Buffer) to make solutions with a nominal targeted concentration of 1 mM. The vial was then rotated on an orbital shaker at room temperature for 18-24 h. After equilibration time had been met, the test solution was centrifuge filtered through a 0.45 um membrane (Millipore Ultrafree Centrifugal Filters, Durapore PVDF 0.45 um). The filtrate was then analyzed by an Agilent HP1100 HPLC/UV at multiple wavelengths using diode array detection (e.g. 210, 230, 254 and 280 nm) against a previously generated calibration curve to determine compound concentration.
(§5) Find below in Table 9 data for compared compounds (See WO 2011/127106 A1).

[1] = molecular target: L-type calcium channel Cav1.2 (Homo sapiens (Human), UniProt Q13936); test: Patch clamp electrophysiology assay, L-type calcium channel; type: cell-based; settings: pH 7.35, HEK293, read-out: Ca % Inhibition
L-type calcium channel Cav1.2, sequence (Q13936 whole entry): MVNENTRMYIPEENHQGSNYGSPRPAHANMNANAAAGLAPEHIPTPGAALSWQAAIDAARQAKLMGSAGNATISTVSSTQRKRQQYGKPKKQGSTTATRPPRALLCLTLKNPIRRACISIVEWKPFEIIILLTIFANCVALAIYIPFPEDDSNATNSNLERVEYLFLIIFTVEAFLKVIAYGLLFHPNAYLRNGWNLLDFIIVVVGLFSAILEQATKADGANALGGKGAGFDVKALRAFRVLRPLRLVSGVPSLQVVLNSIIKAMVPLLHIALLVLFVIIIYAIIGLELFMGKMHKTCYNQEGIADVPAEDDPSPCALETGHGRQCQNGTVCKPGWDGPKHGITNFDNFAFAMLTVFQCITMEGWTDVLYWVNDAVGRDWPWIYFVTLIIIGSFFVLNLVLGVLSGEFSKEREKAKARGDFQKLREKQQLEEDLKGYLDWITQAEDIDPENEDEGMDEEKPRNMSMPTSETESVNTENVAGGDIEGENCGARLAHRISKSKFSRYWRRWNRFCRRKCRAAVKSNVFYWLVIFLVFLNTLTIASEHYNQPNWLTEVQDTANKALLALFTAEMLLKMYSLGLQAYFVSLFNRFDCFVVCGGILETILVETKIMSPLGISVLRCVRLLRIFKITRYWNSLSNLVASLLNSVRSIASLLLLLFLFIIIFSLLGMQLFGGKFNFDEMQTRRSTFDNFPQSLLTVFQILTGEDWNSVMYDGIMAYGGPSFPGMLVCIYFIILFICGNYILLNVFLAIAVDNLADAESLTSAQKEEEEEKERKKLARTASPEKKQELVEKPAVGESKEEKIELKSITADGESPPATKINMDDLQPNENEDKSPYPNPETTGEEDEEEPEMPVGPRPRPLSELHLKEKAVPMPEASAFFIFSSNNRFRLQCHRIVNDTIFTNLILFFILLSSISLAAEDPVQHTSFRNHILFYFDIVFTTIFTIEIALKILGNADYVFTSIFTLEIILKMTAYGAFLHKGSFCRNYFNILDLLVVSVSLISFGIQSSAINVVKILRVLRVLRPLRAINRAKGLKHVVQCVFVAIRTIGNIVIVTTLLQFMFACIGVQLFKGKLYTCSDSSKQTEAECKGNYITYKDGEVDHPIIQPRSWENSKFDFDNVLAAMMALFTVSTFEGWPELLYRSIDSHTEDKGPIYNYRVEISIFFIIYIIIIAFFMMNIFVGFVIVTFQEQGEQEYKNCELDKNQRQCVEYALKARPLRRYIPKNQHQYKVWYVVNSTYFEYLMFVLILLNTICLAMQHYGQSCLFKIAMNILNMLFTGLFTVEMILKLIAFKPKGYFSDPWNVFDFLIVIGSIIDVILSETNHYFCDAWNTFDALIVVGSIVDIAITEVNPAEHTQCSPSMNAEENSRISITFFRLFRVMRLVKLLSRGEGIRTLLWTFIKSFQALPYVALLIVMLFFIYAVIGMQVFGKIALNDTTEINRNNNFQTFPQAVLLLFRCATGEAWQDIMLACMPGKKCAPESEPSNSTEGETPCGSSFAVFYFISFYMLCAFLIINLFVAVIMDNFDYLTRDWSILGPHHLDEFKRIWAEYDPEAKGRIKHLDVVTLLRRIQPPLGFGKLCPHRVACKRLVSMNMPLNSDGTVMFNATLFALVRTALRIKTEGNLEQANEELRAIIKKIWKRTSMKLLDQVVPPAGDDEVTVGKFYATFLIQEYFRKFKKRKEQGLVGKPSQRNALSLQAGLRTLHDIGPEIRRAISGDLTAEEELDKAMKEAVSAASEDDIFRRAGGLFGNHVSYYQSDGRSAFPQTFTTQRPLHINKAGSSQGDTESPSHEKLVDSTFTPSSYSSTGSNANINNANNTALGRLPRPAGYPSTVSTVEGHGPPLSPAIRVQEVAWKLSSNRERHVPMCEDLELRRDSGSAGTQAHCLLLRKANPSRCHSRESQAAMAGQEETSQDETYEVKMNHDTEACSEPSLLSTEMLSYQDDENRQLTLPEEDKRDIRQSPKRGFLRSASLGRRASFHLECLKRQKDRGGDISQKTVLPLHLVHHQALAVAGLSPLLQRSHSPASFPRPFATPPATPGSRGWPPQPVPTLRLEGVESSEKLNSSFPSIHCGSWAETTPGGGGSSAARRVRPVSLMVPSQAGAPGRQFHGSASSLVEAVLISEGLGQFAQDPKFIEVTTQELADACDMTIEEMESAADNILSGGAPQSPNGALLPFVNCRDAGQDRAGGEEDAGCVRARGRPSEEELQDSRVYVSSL
L-type calcium channel Cav1.2, sequence (Q08289 whole entry partner): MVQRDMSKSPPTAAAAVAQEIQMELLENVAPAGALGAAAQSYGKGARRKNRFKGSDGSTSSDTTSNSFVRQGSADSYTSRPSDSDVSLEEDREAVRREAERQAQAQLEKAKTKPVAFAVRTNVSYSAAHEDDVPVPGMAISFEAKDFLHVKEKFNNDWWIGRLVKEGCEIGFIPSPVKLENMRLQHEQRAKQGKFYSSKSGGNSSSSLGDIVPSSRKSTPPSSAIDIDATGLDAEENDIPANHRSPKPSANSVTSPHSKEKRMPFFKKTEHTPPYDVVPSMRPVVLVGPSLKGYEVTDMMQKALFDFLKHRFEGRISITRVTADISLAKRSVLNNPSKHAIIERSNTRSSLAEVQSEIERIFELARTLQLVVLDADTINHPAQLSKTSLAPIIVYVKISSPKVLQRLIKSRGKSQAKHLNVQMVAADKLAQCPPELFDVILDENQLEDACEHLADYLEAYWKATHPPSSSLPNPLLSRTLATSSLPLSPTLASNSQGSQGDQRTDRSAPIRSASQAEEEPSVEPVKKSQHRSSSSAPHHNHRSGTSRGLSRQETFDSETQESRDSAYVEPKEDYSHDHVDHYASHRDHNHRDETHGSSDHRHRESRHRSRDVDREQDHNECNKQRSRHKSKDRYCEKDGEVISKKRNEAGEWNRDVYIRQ
L-type calcium channel Cav1.2, sequence (P54289 25-1103 partner): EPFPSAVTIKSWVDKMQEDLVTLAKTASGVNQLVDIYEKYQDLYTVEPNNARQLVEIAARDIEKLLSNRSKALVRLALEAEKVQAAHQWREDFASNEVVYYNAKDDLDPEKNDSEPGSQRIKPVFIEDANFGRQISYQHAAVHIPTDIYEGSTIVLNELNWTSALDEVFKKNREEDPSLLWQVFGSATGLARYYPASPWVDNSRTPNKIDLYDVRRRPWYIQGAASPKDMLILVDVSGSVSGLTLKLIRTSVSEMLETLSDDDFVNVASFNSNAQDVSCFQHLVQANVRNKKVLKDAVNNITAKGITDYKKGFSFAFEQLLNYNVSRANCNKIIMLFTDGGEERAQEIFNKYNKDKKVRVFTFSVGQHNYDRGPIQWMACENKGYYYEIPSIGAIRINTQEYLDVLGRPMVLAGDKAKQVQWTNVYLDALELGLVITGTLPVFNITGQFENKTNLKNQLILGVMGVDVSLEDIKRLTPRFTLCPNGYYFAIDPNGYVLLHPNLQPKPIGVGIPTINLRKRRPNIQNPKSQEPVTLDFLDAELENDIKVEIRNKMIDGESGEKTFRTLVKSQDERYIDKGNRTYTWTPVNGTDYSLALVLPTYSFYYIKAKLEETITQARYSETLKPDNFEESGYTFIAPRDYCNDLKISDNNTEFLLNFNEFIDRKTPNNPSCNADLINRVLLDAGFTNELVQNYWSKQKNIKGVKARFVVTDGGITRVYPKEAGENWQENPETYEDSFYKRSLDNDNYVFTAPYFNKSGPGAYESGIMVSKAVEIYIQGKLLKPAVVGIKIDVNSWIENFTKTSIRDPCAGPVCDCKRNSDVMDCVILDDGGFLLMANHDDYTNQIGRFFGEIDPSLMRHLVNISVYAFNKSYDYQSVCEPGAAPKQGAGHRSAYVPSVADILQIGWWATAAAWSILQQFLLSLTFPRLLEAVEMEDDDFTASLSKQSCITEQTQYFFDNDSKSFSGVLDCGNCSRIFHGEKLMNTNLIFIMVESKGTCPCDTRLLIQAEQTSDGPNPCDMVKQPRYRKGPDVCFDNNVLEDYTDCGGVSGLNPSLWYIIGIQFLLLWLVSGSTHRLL
Procedure: as §1, §2, §3, §4
L-type calcium currents are elicited by 200 ms step depolarizations applied from a holding potential of −50 mV to a test potential of +30 mV. The voltage steps are applied in 5 second intervals (0.2 Hz) and the peak inward current is recorded. […] The peak inward current is monitored until a new steady-state in the presence of test article is achieved.
Compounds are tested in 3 cells at each concentration in each ion channel assay. […] All currents were recorded at room temperature ˜25° C. IC50 values are calculated using the sigmoidal concentration-response equation Y=A+((B−A)/(1+((C/X)^D))) in XLfit where A and B are the minimum and maximum % inhibition, C is the IC50 and D is the slope factor. […]

in vitro = settings: human, microsomes, pH 7.4
Procedure: Metabolic Stability in Liver Microsomes Test
The test compound was received as a 3.5 mM stock solution in 100 percent dimethyl sulfoxide (“DMSO”, Sigma Aldritch). The compound solution was diluted to create a 50 μM acetonitrile (“ACN”, Sigma Aldritch) solution containing 1.4% DMSO, which is then used as a 100-fold stock for incubation with microsomes. The test compound, β-nicotinamide adenine dinucleotide phosphate (“NADPH”, AppliChem Inc.) and liver microsome solutions are combined for incubation in three steps:
1) 450 μl of liver microsome suspension, protein concentration of 1.1 mg/ml in 100 mM sodium (+)/phosphate (“NaPi”, pH 7.4, Sigma Aldritch) buffer, 5 mM magnesium chloride (“MgCl2, Sigma Aldritch) buffer, is pre-warmed at 37° C.;
2) 5 μl of 50 μM test compound (98.6% ACN, 1.4% DMSO) is added to the same tube and pre-incubated at 37° C. for 5 minutes; and
3) The reaction is initiated by the addition of 50 μl of pre-warmed 10 mM NADPH solution in 100 mM NaPi, pH 7.4.
Reaction components are mixed well and then 65 μl are immediately transferred into 130 μl quench/stop solution (zero-time point, T0). The reactions are incubated at 37° C. for 5, 10, 15, 30 and 45 minutes and at each time-point a 65 μl aliquot is transferred into 130 μl of quench solution. ACN containing Internal Standard (100 ng/ml), is used as the quench solution to terminate metabolic reactions. The quenched mixtures are centrifuged at 1500 rpm (˜500×g) in an Allegra X-12 centrifuge, SX4750 rotor (Beckman Coulter Inc., Fullerton, Calif.) for fifteen minutes to pellet denatured microsomes. A volume of 90 μl of supernatant extract, containing the mixture of parent compound and its metabolites, is then transferred to a separate 96-well plate for LC/MS-MS analysis to determine the percent of parent compound that is remaining in the mixture. Peak integration is performed on all samples using the Hepatic Clearance Calculator of QuickCalc by Gubbs, Inc. The percent remaining calculation is performed by comparing the LC-MS/MS peak areas from the samples at each time point to those from the T0 samples for each compound. T1/2 values are calculated from linear regression of the LN (% Remaining) over time, and the slope of that regression (Kel) is used to calculate T1/2, using the following equation: T1/2=−0.693/Kel.

FaSSIF solubility assay = type: physicochemical; settings: thermodynamic from solid, FaSSIF buffer, 37° C.
Procedure: Approximately 5-10 mg of accurately weighed test compound was transferred to a glass vial containing 4 mL of a FaSSIF buffer (PharesAG, prepared according to manufactures protocol). The vial was then rotated at 37° C. for 24 h. After equilibration time had been met, the test solution was centrifuge filtered through a 0.45 um PTFE membrane filter. The filtrate was then analyzed by HPLC/UV against a set of standard injections to determine compound concentration.
as §5

hERG, sequence (Q12809 whole entry): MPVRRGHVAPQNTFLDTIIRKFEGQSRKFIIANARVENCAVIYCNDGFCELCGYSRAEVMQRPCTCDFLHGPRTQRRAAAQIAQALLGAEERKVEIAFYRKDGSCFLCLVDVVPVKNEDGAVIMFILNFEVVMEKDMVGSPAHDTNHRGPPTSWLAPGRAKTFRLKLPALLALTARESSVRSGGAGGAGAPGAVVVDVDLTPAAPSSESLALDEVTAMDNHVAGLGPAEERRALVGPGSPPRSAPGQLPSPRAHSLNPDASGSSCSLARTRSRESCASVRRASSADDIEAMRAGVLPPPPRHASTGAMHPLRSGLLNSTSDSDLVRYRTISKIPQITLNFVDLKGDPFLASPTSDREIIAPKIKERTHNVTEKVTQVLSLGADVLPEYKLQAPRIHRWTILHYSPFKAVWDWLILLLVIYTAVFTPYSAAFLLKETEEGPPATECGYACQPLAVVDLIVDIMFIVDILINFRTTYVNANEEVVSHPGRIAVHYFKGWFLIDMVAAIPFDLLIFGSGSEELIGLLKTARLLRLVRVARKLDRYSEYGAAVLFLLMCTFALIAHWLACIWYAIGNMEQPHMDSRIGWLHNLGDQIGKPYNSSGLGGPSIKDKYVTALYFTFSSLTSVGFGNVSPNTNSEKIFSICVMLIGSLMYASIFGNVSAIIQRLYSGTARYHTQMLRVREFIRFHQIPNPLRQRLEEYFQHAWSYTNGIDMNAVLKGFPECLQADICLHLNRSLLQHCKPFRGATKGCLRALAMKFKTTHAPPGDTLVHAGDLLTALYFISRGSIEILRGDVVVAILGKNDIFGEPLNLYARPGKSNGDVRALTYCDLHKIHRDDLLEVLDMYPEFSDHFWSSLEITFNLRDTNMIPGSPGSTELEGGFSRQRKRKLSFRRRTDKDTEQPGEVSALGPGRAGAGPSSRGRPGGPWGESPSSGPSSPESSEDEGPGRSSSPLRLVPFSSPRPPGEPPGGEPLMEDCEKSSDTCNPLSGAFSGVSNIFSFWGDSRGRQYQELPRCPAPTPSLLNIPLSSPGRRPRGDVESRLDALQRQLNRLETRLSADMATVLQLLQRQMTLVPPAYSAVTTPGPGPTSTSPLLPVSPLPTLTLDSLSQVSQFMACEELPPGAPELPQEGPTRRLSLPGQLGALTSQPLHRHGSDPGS

Structure (SMILES) | inhibition at 30 µM (hERG) [%] | solubility (Aqueous solubility assay) [µg/mL] | inhibition at 10 µM [1] [%] | half-life at 0.5 µM (in vitro) [h] | solubility at 24 h (FaSSIF solubility assay) [µg/mL]
Cc1nc(-n2cc(Cl)c(OC3CCN(c4ncc(Cl)cn4)CC3)cc2=O)ccc1N1CC[C@H](O)C1=O [Example 3, (S)-5-chloro-4-((1-(5-chloropyrimidin-2-yl)piperidin-4-yl)oxy)-5′-(3-hydroxy-2-oxopyrrolidin-1-yl)-6′-methyl-2H-[1,2′-bipyridin]-2-one] | 33 | 1 (≈ 1.88 µM) | 9 | 1.3 | –
Cc1nc(-n2cc(Cl)c(OC3CCN(c4ncc(Cl)cn4)CC3)cc2=O)ccc1N1CC[C@@H](O)C1=O [Example 4, (R)-5-chloro-4-((1-(5-chloropyrimidin-2-yl)piperidin-4-yl)oxy)-5′-(3-hydroxy-2-oxopyrrolidin-1-yl)-6′-methyl-2H-[1,2′-bipyridin]-2-one] | 40 | 2 (≈ 3.76 µM) | 7 | 1.62 | 11 (≈ 20.7 µM)
